For this data set, the system named is Kinetic aqueous solubility, PBS pH 7.4, LC-UV/MS. Briefly: Inhibitors of Cruzain: Aqueous Profiling Assay. The text has this:
Chagas Disease is a neglected tropical disease that affects over 16 million people in Latin America. The cysteine protease cruzain is essential for the survival Trypanosoma cruzi, the parasitic agent responsible for Chagas disease. Potential intervention for T. cruzi includes the inhibition of cruzain. This bioassay will summarize the ongoing development of small molecule cruzain inhbitiors. Currently, a screen of ~200k compounds and through extensive follow-up work a probe was identified. To further characterize the probe, it was tested in in vitro ADME assays. This bioassay provides profiling data on aqueous kinetic solubility (PBS @ pH 7.4), an important measure that affects in vivo bioavailability. NIH Chemical Genomics Center [NCGC] NIH Molecular Libraries Probe Production Centers Network [MLPCN] MLSCN Grant: DA024891-01 PI Name: Dr. Brian Shoichet; University of California, San Francisco
1. 8ul of reference and test compound stock solution were added to 392ul 100mM phosphate buffer (pH 7.4) 2. Sample tubes were shaken for 1 hr (1000 rpm) at room temperature 3. Samples were centrifuged (10 min at 12000 rpm) to precipitate un-dissolved particles 4. Supernatants were transferred to new tubes 5. Concentration of the supernatant was determined by LC-UV or LC-MS/MS

Structures are written as SMILES. Converted amounts (≈) assume the structure as drawn.

As for `Cc1ccc(OCCn2c(CCNC(=O)C3CCCCC3)nc3ccccc32)cc1`, the solubility (commonly the dissolved amount per volume that the medium holds) is 5 µM (≈ 2.03 µg/mL).
